From patent publication US8158621B2, “Methods of treating or preventing autoimmune diseases with 2,4-pyrimidinediamine compounds” (Rigel Pharmaceuticals, Inc., priority 2002, dated 2012)
pIC50: −log10 of the molar value.

Legend:
[1] = system: cultured human mast cells (CHMC); test: CHMC low cell density ionomycin activation: tryptase assay; assay type: cell-based
[2] = system: bone marrow derived mast cells (BMMC); test: BMMC high cell density IgE activation: hexosaminidase; assay type: cell-based, mouse; details: high cell density; read-out: BMMC anti-IgE Hexos.
Procedure: (§1) After sensitizing, cells are counted, pelleted (1000 rpm, 5-10 minutes), and resuspended at 1-3×10^6 cells/ml in MT buffer. Add 100 ul of cell suspension to each well and 100 ul of compound dilutions. The final vehicle concentration is 0.5% DMSO. Incubate at 37° C. (5% CO2) for 1 hour. After 1 hour of compound treatment, stimulate cells with 6× stimulus (60 ng/ml DNP-BSA). Mix wells with the cells and allow plates to incubate at 37° C. (5% CO2) for one hour. After 1 hour incubation, pellet cells (10 minutes, 1000 RPM) and collect 200 ul per well of the supernatant, being careful not to disturb pellet, and transfer to a clean tube or 96-well plate. Place the supernatant plate on ice. During the 4-5 hour step (see next) perform the hexosiminidase assay. Resuspend cell pellet in 240 ul WEI-conditioned media containing 0.5% DMSO and corresponding concentration of compound. Incubate BMMC cells for 4-5 hours at 37° C. (5% CO2). After incubation, pellet cells (1000 RPM, 10 minutes) and collect 225 ul per well and place in −80° C. until ready to perform ELISAS. ELISAS are performed on appropriately diluted samples (determined empirically for each donor cell population so that the sample measurement falls within the standard curve) following the supplier's instructions.
(§2) Add 50 uL of BMMC cell supernatant (see above) to the hexoseaminidase substrate, place at 37° C. for 30 minutes and read the plate at 5, 10, 15, and 30 minutes on a spectrophotometer.

[3] = system: bone marrow derived mast cells (BMMC); test: BMMC high cell density IgE activation: TNFalpha; assay type: cell-based, mouse; details: high cell density; read-out: BMMC anti-IgE TNF-alpha
Procedure: as §1

[4] = system: bone marrow derived mast cells (BMMC); test: BMMC high cell density IgE activation: IL-6; assay type: cell-based, mouse; details: high cell density; read-out: BMMC anti-IgE IL-6
Procedure: as §1

[5] = molecular target: T1, Syk kinase (Homo sapiens, UniProt P43405); test: Syk kinase biochemical fluorescence polarization assay; details: isolated Syk kinase, fluorescence polarization, 4 uM ATP
T1 construct: purchased Upstate, Lake Placid NY

[6] = system: Human Jurkat T-cells (clone N); test: Jurkat T-cell activation (anti-TCR, CD69 upregulation); assay type: cell-based
In short: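 Readout is CD69 upregulation by flow cytometry (anti-CD69-APC, 20 min at 4 °C) after 20 h anti-TCR (C305, 500 ng/ml) stimulation at 37 °C.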

[7] = system: cultured human mast cells (CHMC); test: CHMC low cell density IgE activation: tryptase assay; assay type: cell-based
In short: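 Supernatant tryptase activity, assayed with substrate for 30 min at room temperature, served as the degranulation measure. Mast cells (1000-1500 per well depending on donor) sat 1 hr at 37° C in MT before a 30 min anti-IgE challenge at 37° C.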

[8] = system: cultured human mast cells (CHMC); test: CHMC low cell density IgE activation: LTC4 assay; assay type: cell-based; details: anti-IgE activation, LTC4 release
Procedure: Pellet CHMC cells (980 rpm, 10 min) and resuspend in pre-warmed MT. Add 65 ul of cells to each 96-well plate. Depending on the degranulation activity for each particular CHMC donor, load 1000-1500 cells/well. Mix four times followed by a 1 hr incubation at 37° C. […] Stimulate cells by adding 25 ul of 6× anti-IgE solution to the appropriate plates. Add 25 ul MT to un-stimulated control wells. Mix twice following addition of the anti-IgE. Incubate at 37° C. for 30 minutes. […] Spin plates at 1000 rpm for 10 min to pellet cells. Transfer 25 ul of supernatant to a 96-well black bottom plate and add 100 ul of freshly diluted tryptase substrate solution to each well. Incubate plates at room temperature for 30 min.
Leukotriene C4 (LTC4) is also quantified using an ELISA kit on appropriately diluted supernatant samples (determined empirically for each donor cell population so that the sample measurement falls within the standard curve) following the supplier's instructions.

[9] = system: cultured human mast cells (CHMC); test: CHMC high cell density IgE activation: hexos; assay type: cell-based
Procedure: (§3) After sensitizing, cells are counted, pelleted (1000 rpm, 5-10 minutes), and resuspended at 1-2 ×10^6 cells/ml in MT buffer. Add 100 ul of cell suspension to each well and 100 ul of compound dilutions. The final vehicle concentration is 0.5% DMSO. Incubate at 37° C. (5% CO2) for 1 hour. After 1 hour of compound treatment, stimulate cells with 6× anti-IgE. Mix wells with the cells and allow plates to incubate at 37° C. (5% CO2) for one hour. After 1 hour incubation, pellet cells (10 minutes, 1000 RPM) and collect 200 ul per well of the supernatant, being careful not to disturb pellet. Place the supernatant plate on ice. During the 7-hour step (see next) perform tryptase assay on supernatant that had been diluted 1:500. Resuspend cell pellet in 240 ul of CM media containing 0.5% DMSO and corresponding concentration of compound. Incubate CHMC cells for 7 hours at 37° C. (5% CO2). After incubation, pellet cells (1000 RPM, 10 minutes) and collect 225 ul per well and place in −80° C. until ready to perform ELISAS. ELISAS are performed on appropriately diluted samples (determined empirically for each donor cell population so that the sample measurement falls within the standard curve) following the supplier's instructions.
as §2

[10] = system: cultured human mast cells (CHMC); test: CHMC high cell density IgE activation: tryptase; assay type: cell-based
Procedure: as §3

[11] = system: cultured human mast cells (CHMC); test: CHMC high cell density IgE activation: histamine; assay type: cell-based
Procedure: as §3

[12] = system: cultured human mast cells (CHMC); test: CHMC high cell density IgE activation: LTC4; assay type: cell-based
Procedure: as §3

[13] = system: cultured human mast cells (CHMC); test: CHMC high cell density IgE activation: TNFalpha; assay type: cell-based; details: read-out: CHMC high density TNF-alpha
Procedure: as §3

[14] = system: cultured human mast cells (CHMC); test: CHMC high cell density IgE activation: IL-13; assay type: cell-based
Procedure: as §3

[15] = system: basophil cells (human peripheral blood); test: Basophil ionomycin activation: histamine release assay; assay type: cell-based; details: basophils, ionomycin activation, histamine release; read-out: Basophils Ionomycin Histamine IC50
Procedure: The basophil activation assay was carried out using whole human peripheral blood from donors allergic to dust mites with the majority of the red blood cells removed by dextran sedimentation. Human peripheral blood was mixed 1:1 with 3% dextran T500 and RBCs were allowed to settle for 20-25min. The upper fraction was diluted with 3 volumes of D-PBS and cells were spun down for 10 min at 1500 rpm, RT. Supernatant was aspirated and cells were washed in an equal volume MT-buffer. Finally, cells were resuspended in MT-buffer containing 0.5% DMSO in the original blood volume. 80 uL cells were mixed with 20 uL compound in the presence of 0.5% DMSO, in triplicate, in a V-bottom 96-well tissue culture plate. A dose range of 8 compound concentrations was tested resulting in a 10-point dose response curve including maximum (stimulated) and minimum (unstimulated) response. […] The cells were stimulated for 30 minutes at 37° C., 5% CO2. The plate was spun for 10 min at 1500 rpm at room temperature and 80 uL the supernatant was harvested for histamine content analysis using the histamine ELISA kit supplied by Immunotech. The ELISA was performed according to supplier's instructions.
Assays for ionomycin-induced basophil cell degranulation were carried out as described for the Basophil IgE or Dustmite Activation Assay (Section 7.5.5, supra), with the exception that following incubation with compound, cells were stimulated with 20 μl of 2 μM ionomycin.

[16] = low cell density, read-out: CHMC Ionomycin Tryptase
[17] = Low Density CHMC, anti-IgE activation, tryptase release, read-out: CHMC anti-IgE Tryptase IC50
[18] = Low Density CHMC, ionomycin activation, tryptase release, read-out: CHMC Ionomycin Tryptase IC50
[19] = Low Density, read-out: CHMC anti-IgE Tryptase
[20] = Low Density, read-out: CHMC Ionomycin Tryptase

pIC50 [1, 16] | pIC50 [2] | pIC50 [3] | pIC50 [4] | pIC50 [5] | pIC50 [6] | pIC50 [7, 17] | pIC50 [8] | pIC50 [1, 18] | pIC50 [9] | pIC50 [10] | pIC50 [11] | pIC50 [12] | pIC50 [13] | pIC50 [7, 19] | pIC50 [1, 20] | pIC50 [14] | pIC50 [15] | pIC50 ([7]; low cell density, read-out: CHMC anti-IgE Tryptase) | SMILES
< 5.00 | 5.61 | 5.83 | 6.28 | 6.35 | < 5.00 |  |  |  |  |  |  |  |  |  |  |  |  |  | Cn1ncc2ccc(Nc3ncc(F)c(Nc4ccc(Cl)c(Cl)c4)n3)cc21 [Compound R935393]
 |  |  |  |  | < 5.00 | 7.15 | 7.11 | 5.62 | < 5.70 | < 5.00 | < 5.00 | 5.83 | < 5.00 |  |  |  |  |  | COC(=O)C1Cc2cc(Nc3ncc(F)c(Nc4ccc(OC(C)C)cc4)n3)ccc2O1 (stereo not drawn) [Compound R926706]
 |  |  |  |  | 5.62 |  |  |  | 6.25 | 6.21 | 6.20 | 6.70 | 5.98 | 6.51 | < 5.00 | 6.10 |  |  | Nc1cc(Cl)cc(Nc2ncc(F)c(Nc3cc(N)cc(Cl)c3)n2)c1 [Compound R950141]
 |  |  |  |  | 5.58 | 6.58 | 6.27 | < 5.00 | 6.00 | 5.90 | 6.19 | 6.31 | < 5.00 |  |  |  |  |  | CC(C)Oc1ccc(Nc2nc(Nc3ccc4oc(CO)cc4c3)ncc2F)cc1 [Compound R926705]
 |  |  |  |  | 6.29 |  |  | < 5.00 | > 5.96 | > 5.96 | > 5.96 | > 5.96 | > 5.96 |  |  | 5.69 |  |  | OCc1cc2cc(Nc3ncc(F)c(Nc4cccc(O)c4)n3)ccc2[nH]1 [Compound R926700]
 |  |  |  |  | 4.90 | 6.50 | 7.11 | < 5.00 | 6.19 | < 5.70 | < 5.00 | 6.49 | < 5.00 |  |  |  |  |  | CNC(=O)c1cc2cc(Nc3ncc(F)c(Nc4ccc(C(C)(C)C)cc4)n3)ccc2o1 [Compound R926494]
 |  |  |  | 6.66 | 5.79 |  |  |  | < 5.70 | < 5.70 | < 5.70 |  |  |  |  | < 5.70 | < 5.00 |  | O=C(c1cc2cc(Nc3ncc(F)c(Nc4cccc(O)c4)n3)ccc2o1)N1CCNCC1 [Compound R926502]
 |  |  |  |  | 5.73 |  |  |  | < 5.70 | < 5.70 | < 5.00 |  | < 5.70 |  | < 5.00 | < 5.00 |  |  | Cc1cc(Nc2nc(Nc3cccc(OCCN4CCNCC4)c3)ncc2F)cc(C)c1O [Compound R945142]
 |  |  |  |  | 5.89 |  |  |  | > 5.96 | > 5.96 | 5.93 | > 5.96 | 5.50 | 6.57 | 5.14 | 5.52 |  |  | Cc1cc(Nc2ncc(F)c(Nc3cc(C)c(O)c(Cl)c3)n2)cc(Cl)c1O [Compound R940216]
 |  |  |  |  | 5.18 | 6.64 |  | < 5.00 | < 5.00 | < 5.00 |  |  | < 5.00 |  |  | 5.19 |  |  | COC(=O)c1cc2cc(Nc3ncc(F)c(Nc4cccc(O)c4)n3)ccc2o1 [Compound R926614]
5.66 | 7.22 | 7.15 | 7.00 | 7.16 | 6.41 |  |  |  |  |  |  |  |  |  |  |  |  | 7.33 | COc1c(C)cc(Nc2ncc(F)c(Nc3ccc4c(c3)NC(=O)C(C)(C)O4)n2)cc1Cl [Compound R940361]
